# Measured values as given in US11879021B2, “Cyclic peptides and uses thereof” (UNIVERSITÉ DE MONTRÉAL, priority 2016, dated 2024).
# Molecular target: T1, CD36 (Rattus norvegicus, UniProt Q07969)
# T1 construct: from tissue; host or cells: Heart (cardiac membranes) of Sprague Dawley rats from Charles River
# Assay: Competition binding of photoactivatable [125I]-Tyr-Bpa-Ala-Hexarelin to CD36 in rat cardiac membranes
# Conditions: competition with [125I]-Tyr-Bpa-Ala-Hexarelin, rat heart membranes; read-out: IC50 (μM), binding affinity for CD36
# Procedure: Hearts from Sprague Dawley rats (300-325 g) from Charles River were cut into small pieces and homogenized with a Polytron® at low speed, 3×15 sec in buffer A (10 mM NaHCO3, 5 mM NaN3, 10 μM Pefabloc®, 0.1 μM Aprotinin, 1 μM Pepstatin A, 1 μM Leupeptin, pH 7.0) at a concentration of […] of tissue. The homogenate was first centrifuged at 8,700×g for 20 min in a Sorvall® centrifuge and the supernatant was collected on ice. The pellet was resuspended and re-homogenized with a Glass-Teflon® Potter by 5 strokes. This homogenate was recentrifuged at 8,700×g for 10 min and the resulting supernatant was combined with the first collected supernatant. The combined supernatant was centrifuged at 35,000×g for 20 min. The pellet fraction obtained was resuspended in Buffer B (20 mM Tris-maleate, 0.6M KCl, pH 6.8) in a volume corresponding to 20 mL/g of fresh tissue using a glass homogenizer with a Teflon pestle. The resulting suspension was centrifuged again at 35,000×g for 60 min. and the pellet fraction obtained was resuspended in Buffer C (10 mM Tris/HCl buffer pH 7.4) and thoroughly homogenized in a glass with a Teflon® pestle (20 ml/g of fresh tissue). This suspension was submitted to another centrifugation at 35,000×g for 60 min. The collected pellet was resuspended in 50 mM Tris/HCl buffer pH 7.4) containing 2 mM EGTA in a final volume corresponding to 1-2 mL/g of fresh tissue. The membrane preparation obtained was frozen at −80° C. Protein concentration was determined using the bicinchoninic acid (BCA) method, employing BSA as standard.
# The reaction was started by adding 3 nmol of H2O2 for 5 min at room temperature. This step was repeated twice with a period of 5 min of incubation for each addition. The reaction was stopped by diluting the mixture with 1 mL of 0.1% TFA. The radioiodinated peptide was purified by HPLC on a reverse-phase Vydac® C18 column with a 60-min linear gradient from 20% to 50% of acetonitrile in 0.1% TFA. The eluted radiolabelled tracer was collected, aliquoted (50×10^6 cpm/fraction) and stored at −80° C.
# Binding studies with MPE-298 were done with increasing concentrations from 0.01 to 5 μM of competition ligands. Nonspecific binding was defined as binding not displaced by 50 μM corresponding peptide. All peptide containing solutions were diluted in Buffer B. Buffer A and B were degassed under vacuum, and used in capped tubes in order to minimize lipid peroxidation. Before the incubation period, all tubes were put under a low flow of nitrogen. All material was kept on ice and the binding assay was performed in darkness. After an incubation period of 60 min at 22° C. (vortexing every 15 min), membranes were submitted to irradiation with UV lamps (365 nm) for 15 min at 4° C. After centrifugation at 12,000×g for 15 minutes, the pellets were resuspended in 40 μl of sample buffer (62 mM Tris-HCl, pH 6.8, 2% SDS, 10% glycerol, 15% 2-mercaptoethanol, and 0.05% bromophenol blue), and boiled for 5 min prior to being subjected to electrophoresis. Proteins (50 μg/40 μl) were separated on a 7.5% SDS-PAGE Bio-Rad® Mini-Protean electrophoresis system (150 V for 1 h). The gels resulting from SDS/PAGE were fixed, colored in Coomassie Brilliant Blue R-250, dried, exposed to a storage phosphor intensifying screen (Amersham Biosciences), and analysed using a Typhoon® PhosphorImager (GE Healthcare Life Sciences®). […] The curves were analysed by using software package (Graphpad® prism version 7.0).
# T1 sequence (Q07969 whole entry): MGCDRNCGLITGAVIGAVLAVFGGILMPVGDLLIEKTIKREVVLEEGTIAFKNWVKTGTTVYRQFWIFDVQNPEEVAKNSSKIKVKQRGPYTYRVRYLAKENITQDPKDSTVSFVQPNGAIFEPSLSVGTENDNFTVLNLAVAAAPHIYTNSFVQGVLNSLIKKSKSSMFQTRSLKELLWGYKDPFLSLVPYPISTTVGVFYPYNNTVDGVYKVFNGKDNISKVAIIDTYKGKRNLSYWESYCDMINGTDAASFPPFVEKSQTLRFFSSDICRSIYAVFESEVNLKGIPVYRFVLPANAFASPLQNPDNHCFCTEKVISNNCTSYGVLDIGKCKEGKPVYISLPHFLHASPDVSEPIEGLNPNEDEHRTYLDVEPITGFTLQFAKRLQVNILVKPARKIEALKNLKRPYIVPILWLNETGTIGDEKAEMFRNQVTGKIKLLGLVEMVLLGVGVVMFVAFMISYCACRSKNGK
smiles,measurement,value
C=CCN1CC#CCN(NC(=O)[C@H](C)N)C(=O)N[C@H](Cc2c[nH]c3ccccc23)C(=O)N[C@@H](C)C(=O)N[C@@H](Cc2c[nH]c3ccccc23)C(=O)N[C@H](Cc2ccccc2)C(=O)N[C@H](C(N)=O)CCCC1 [MPE-298],IC50,0.07 µM
